Source: patent publication US10689423B2, “CTLA4-binding protein peptide-linker masks” (City of Hope, priority 2015, dated 2020)
pKd: −log10 of the molar value. Bridge positions count the residues as written; N and C are the ends. Peptide text beside a SMILES is read from it.

Experiments:
mLcn2-Fc = assay: SPR of analyte mLcn2-Fc flowed over immobilized Peptide12; type: binding; conditions: peptide immobilized on CM5 chip, three independent experiments
Text: FIG. 14B: mLCN2-Fc vs. Pep12. Surface plasmon resonance of analyte mLcn2-Fc flowed over ligand Peptide12 immobilized to a CM5 chip. Representative results are shown from three independent experiments.
(§1) The sequence of mLcn2 was obtained from the PDB, synthesized and produced in bacteria. Peptides that specifically bind to mLcn2 were identified using a cyclic 7-mer library. Positive leads were identified and sequencing of these hits indicated an overall pattern in the sequences. To further characterize the lead peptides and to ensure the peptides bound to the same site as CTLA, a competition ELISA was performed using all leads (FIG. 2A). Based on this analysis, two cyclic peptides were chosen, chemically synthesized, and characterized by SPR (FIG. 2B) and crystallography. Well diffracting crystals were obtained for both complexes (1.95 and 2.15 Å) and refined (R/Rfree of 18.0/22.5% and 16.5/18.5% and no Ramachandran outliers). […] Design of the linker was aided by examination of the crystal structure of lipocalin.

Lcn2-Fc = assay: Phage competition ELISA of surface-bound peptides on immobilized Lcn2-Fc; type: binding; conditions: compared to Lcn2-Fc pre-complexed with CTLA4-Fc or PBS control
Text: FIGS. 2A and 2B: Identification and characterization of a peptide (CTLA-4 binding domain masking peptide) blocking binding of mLcn2 (CTLA-4 binding domain) to CTLA-4. […] FIG. 2B is a graph showing surface plasmon resonance traces of analyte mLcn2-Fc flowed over ligand Peptide 16 immobilized to a CM5 chip.
FIG. 10B: ELISA results of bacteriophage library after three rounds of enrichment. Wells in a 96-well plate were immobilized with mLcn2-Fc (left column), mLcn2-Fc pre-complexed with CTLA-4-Fc (middle column), or PBS (right column). Each condition was performed in triplicate.
FIGS. 12A-12D: 18 min substrate incubation. […] FIG. 12A is a graph showing Clone 1—YGLGFNF (SEQ ID NO:52); FIG. 12B is a graph showing Clone 2—RIDETLQ (SEQ ID NO:53); FIG. 12C is a graph showing Clone 3—FTPWPEA (SEQ ID NO:54); and FIG. 12D is a graph showing Clone 4—WPEWDLW (SEQ ID NO:55).
FIGS. 13A-13D: 18 min substrate incubation. […] FIG. 13A is a graph showing clone 6—EKWFRFM (SEQ ID NO:56); FIG. 13B is a graph showing clone 8—YLELMHS (SEQ ID NO:57); FIG. 13C is a graph showing clone 12—SVLPPFM (SEQ ID NO:58); FIG. 13D is a graph showing clone 16—WSPLPFM (SEQ ID NO:59).
as §1

[1] = most common major toxicity; cited from earlier work
mLcn2 = target: T1, mLcn2 (Homo sapiens, UniProt P80188, A60R/C107S/D67H/D97E/E64D/F91S/G122D/H138Y/K145L/K154A/K66Q/K70N/K93H/L123K/L157I/L90I/M140V/N134D/P121G/Q148D/Q48H/Q69M/R101A/R150A/R92S/S147E/T165A/V146A/W99T/Y152F); assay: SPR of analyte mLcn2 flowed over immobilized Peptide16; type: binding
T1 construct: made in house; host or cells: bacteria
Text: FIG. 14A: mLCN2 vs. Pep16. Surface plasmon resonance of analyte mLcn2 flowed over ligand Peptide16 immobilized to a CM5 chip. Representative results are shown from three independent experiments.
as §1

| Compound | phage binding to immobilized Lcn2-Fc by ELISA (Lcn2-Fc) | further results |
| --- | --- | --- |
| CYGLGFNFC [Peptide 1] | increased binding to immobilized Lcn2-Fc |  |
| CRIDERLQC [Peptide 2] | increased binding to immobilized Lcn2-Fc |  |
| ipilimumab |  | patients affected by enterocolitis [1]: approximately 20% |
| CSCC[C@@H]1NC(=O)[C@H](Cc2ccccc2)NC(=O)[C@@H]2CCCN2C(=O)[C@H](CC(C)C)NC(=O)[C@@H]2CCCN2C(=O)[C@H](CO)NC(=O)[C@H](Cc2c[nH]c3ccccc23)NC(=O)[C@@H](N)CSSC[C@@H](C(=O)O)NC1=O [Peptide 16, CWSPLPFMC] (H-CWSPLPFMC-OH; disulfide 1-9) |  | pKd (mLcn2): 5.34 |
| CFTPWPEAC [Peptide 3] | increased binding to immobilized Lcn2-Fc |  |

Further lines, with some results ahead:

| phage binding to immobilized Lcn2-Fc by ELISA (Lcn2-Fc) | Compound | further results |
| --- | --- | --- |
| increased binding to immobilized Lcn2-Fc | CSVLPPFMC [Peptide 12] | pKd (mLcn2-Fc): 5.47 |
| increased binding to immobilized Lcn2-Fc | CEKWFRFMC [Peptide 6] |  |
| increased binding to immobilized Lcn2-Fc | CWPEWDLWC [Peptide 4] |  |
| increased binding to immobilized Lcn2-Fc | CYLELMHSC [Peptide 8] |  |
